In patent US20240174636A1, “NOVEL INDOLEAMINE 2,3-DIOXYGENASE INHIBITORS, PROCESSES FOR THE PREPARATION THEREOF AND PHARMACEUTICAL COMPOSITIONS COMPRISING THE SAME” (YUHAN CORPORATION, priority 2021, published 2024):

Target: T1, IDO1 (Homo sapiens, UniProt P14902)
Experiment: IDO1 cellular activity using Hela cells (IFN-gamma induced IDO expression, kynurenine absorbance at 480 nm)
Format: cell-based
Details: IDO induced with interferon gamma 50 ng/ml, 24 h compound incubation, read-out: Inhibitory Activity (IC50)
Protocol: Hela cells were seeded at a density of 20000 cells/well in 100 μl of a culture medium (EMEM supplemented with 10% FBS, penicillin 100 U/ml, and streptomycin 100 μg/ml) in a tissue culture-treated 96 well plate. The cells were cultured in a 5% carbon dioxide incubator for 24 hours, treated with recombinant human interferon gamma at the concentration of 50 ng/ml, and then cultured for 48 hours in a 5% carbon dioxide incubator to induce IDO expression.
The activities were measured using IDO1 cellular activity-measuring substrate (IDO1 cellular activity quickDetect supplements catalog: #62000-2, BPS Bioscience). Specifically, an assay medium was prepared by diluting IDO1 assay medium substrate 1 and IDO1 assay medium supplement 2 in a culture medium at a ratio of 1:100, respectively. The test compounds were diluted to the predetermined concentrations in the fresh assay medium. After removing the culture medium using a multi-pipet, 200 μl of each assay medium containing the test material was added into the respective well, followed by incubating in a 5% carbon dioxide incubator for 24 hours. The next day, 140 μl of culture medium from each well was transferred to a new 96-well plate. 10 μl of 6.1N trichloroacetic acid was added into each well, which was then cultured in a 50° C. incubator for 30 minutes. The plate was centrifuged at 2500 rpm for 10 minutes to settle any sediment. A detection reagent solution was prepared by diluting the detection reagent (component D kit, catalog: #62000-2, BPS Bioscience) 50-fold in acetic acid. 100 μl of the supernatant taken from the centrifuged plate was transferred to a new transparent 96-well plate and then 100 μl of the detection reagent solution was added thereto. After reacting at room temperature for 10 minutes, absorbance was measured at 480 nm wavelength. For analysis of the results, the absorbance (At) of the well containing Hela cells in which IDO protein expression was induced without treatment of an inhibitor was 100%; and the absorbance (Ab) of the well containing Hela cells in which IDO protein expression was not induced was 0. The % absorbance was calculated according to the following equation: % Absorbance=(A−Ab)/(At−Ab), A=absorbance of the well treated with the test compound.
The results obtained by calculating the 50% inhibitory concentration (C50) of each compound, from the absorbance values obtained as described above, are shown in Table 1 below.

T1 sequence (P14902 whole entry): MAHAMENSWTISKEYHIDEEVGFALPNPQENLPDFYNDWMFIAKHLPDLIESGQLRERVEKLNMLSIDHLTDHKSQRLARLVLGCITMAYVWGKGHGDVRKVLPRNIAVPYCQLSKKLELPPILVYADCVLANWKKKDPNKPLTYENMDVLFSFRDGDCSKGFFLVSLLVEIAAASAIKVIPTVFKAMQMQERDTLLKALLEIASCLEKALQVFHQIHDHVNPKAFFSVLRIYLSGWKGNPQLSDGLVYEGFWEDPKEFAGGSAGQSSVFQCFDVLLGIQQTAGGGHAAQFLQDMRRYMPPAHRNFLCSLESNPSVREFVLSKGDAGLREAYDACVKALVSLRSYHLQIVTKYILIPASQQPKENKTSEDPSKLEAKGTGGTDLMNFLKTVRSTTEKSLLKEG

| IC50 | Structure (SMILES) |
| --- | --- |
| 1 nM | COc1ccc2nc(N[C@H](C)C[C@H]3CC[C@@H](c4ccnc5ccc(F)cc54)CC3)sc2c1 [Example 14, N-((R)-1-((cis)-4-(6-fluoroquinolin-4-yl)cyclohexyl)propan-2-yl)-6-methoxybenzo[d]thiazol-2-amine] |
| 18 nM | C[C@H](C[C@H]1CC[C@@H](c2ccnc3ccc(F)cc32)CC1)Nc1nc2ncccc2s1 [Example 21, N-((R)-1-((cis)-4-(6-fluoroquinolin-4-yl)cyclohexyl)propan-2-yl)thiazolo[4,5-b]pyridin-2-amine] |
| 17 nM | C[C@H](C[C@H]1CC[C@@H](c2ccnc3ccc(F)cc32)CC1)Nc1nc2ccccc2o1 [Example 24, N-((R)-1-((cis)-4-(6-fluoroquinolin-4-yl)cyclohexyl)propan-2-yl)benzo[d]oxazol-2-amine] |
| 5.1 nM | CC[C@H](C[C@H]1CC[C@@H](c2ccnc3ccc(F)cc32)CC1)Nc1nc2ccc(OC)cc2s1 [Example 15, N-((R)-1-((cis)-4-(6-fluoroquinolin-4-yl)cyclohexyl)butan-2-yl)-6-methoxybenzo[d]thiazol-2-amine] |
| 4 nM | COc1ccc2nc(N[C@@H](C[C@H]3CC[C@@H](c4ccnc5ccc(F)cc54)CC3)C3CC3)sc2c1 [Example 16, N-((S)-1-cyclopropyl-2-((cis)-4-(6-fluoroquinolin-4-yl)cyclohexyl)ethyl)-6-methoxybenzo[d]thiazol-2-amine] |

Second part, the molecule before the results:

| Structure (SMILES) | IC50 |
| --- | --- |
| C[C@H](C[C@H]1CC[C@@H](c2ccnc3ccc(F)cc32)CC1)Nc1c(F)c(=O)oc2cc(Br)ccc12 [Example 11, 7-bromo-3-fluoro-4-(((R)-1-((cis)-4-(6-fluoroquinolin-4-yl)cyclohexyl)propan-2-yl)amino)-2H-chromen-2-one] | 18.7 nM |
| C[C@H](C[C@H]1CC[C@H](c2ccnc3ccc(F)cc32)CC1)Nc1cc(=O)oc2cc(Cl)ccc12 [Example 6, 7-chloro-4-(((R)-1-((trans)-4-(6-fluoroquinolin-4-yl)cyclohexyl)propan-2-yl)amino)-2H-chromen-2-one] | 17 nM |
| C[C@H](C[C@H]1CC[C@H](c2ccnc3ccc(F)cc32)CC1)Nc1ncnc2cc(Cl)ccc12 [Example 4, 7-chloro-N-((R)-1-((trans)-4-(6-fluoroquinolin-4-yl)cyclohexyl)propan-2-yl)quinazolin-4-amine] | 11 nM |
| C[C@H](C[C@H]1CC[C@@H](c2ccnc3ccc(F)cc32)CC1)Nc1ncnc2cc(Cl)ccc12 [Example 3, 7-chloro-N-((R)-1-((cis)-4-(6-fluoroquinolin-4-yl)cyclohexyl)propan-2-yl)quinazolin-4-amine] | 14 nM |
| C[C@H](C[C@H]1CC[C@@H](c2ccnc3ccc(F)cc32)CC1)Nc1ncnc2cc(C#N)ccc12 [Example 1, 4-(((R)-1-((cis)-4-(6-fluoroquinolin-4-yl)cyclohexyl)propan-2-yl)amino)quinazolin-7-carbonitrile] | 16 nM |
| C[C@H](C[C@H]1CC[C@@H](c2ccnc3ccc(F)cc32)CC1)Nc1cc(=O)oc2cc(Cl)ccc12 [Example 8, 7-chloro-4-(((R)-1-((cis)-4-(6-fluoroquinolin-4-yl)cyclohexyl)propan-2-yl)amino)-2H-chromen-2-one] | 5.9 nM |
| C[C@H](C[C@H]1CC[C@@H](c2ccnc3ccc(F)cc32)CC1)Nc1cc(=O)oc2cc(Br)ccc12 [Example 9, 7-bromo-4-(((R)-1-((cis)-4-(6-fluoroquinolin-4-yl)cyclohexyl)propan-2-yl)amino)-2H-chromen-2-one] | 18 nM |
| C[C@H](C[C@H]1CC[C@H](c2ccnc3ccc(F)cc32)CC1)Nc1cc(=O)oc2ccc(Br)cc12 [Example 7, 6-bromo-4-(((R)-1-((trans)-4-(6-fluoroquinolin-4-yl)cyclohexyl)propan-2-yl)amino)-2H-chromen-2-one] | 19 nM |

Target: T1, IDO1
Experiment: IDO1 cellular activity using HEK293 cells transfected with IDO1 expression vector
Format: cell-based
Design: host or cells: HEK293 cells, transient transfection with Lipofectamine 2000
Details: 24 h compound incubation, read-out: Inhibitory Activity (IC50)
Protocol: HEK293 cells were seeded at a density of 30000 cells/well in 100 μl of a culture medium (DMEM supplemented with 10% FBS, penicillin 100 U/ml, and streptomycin 100 μg/ml) in a tissue culture-treated 96 well plate. The cells were cultured in a 5% carbon dioxide incubator for 24 hours, transfected with the IDO1 expression vector (component A in IDO1 cell-based assay kit, catalog #72031, BPS Bioscience) using Lipofectamine 2000 (Life Technologies, #11668027), and then cultured for 24 hours in a 5% carbon dioxide incubator to express the IDO protein.
The activities were measured using a IDO1 cell-based assay kit (catalog #72031, BPS Bioscience). Specifically, an assay medium was prepared by diluting IDO1 assay medium substrate 1 and IDO1 assay medium supplement 2 in a culture medium at a ratio of 1:100, respectively. The test compounds were diluted to the predetermined concentrations in the fresh assay medium. After removing the culture medium using a multi-pipet, 200 μl of each assay medium containing the test material was added into respective well, followed by incubating in a 5% carbon dioxide incubator for 24 hours. The next day, 140 μl of culture medium from each well was transferred to a new 96-well plate. 10 μl of 6.1N trichloroacetic acid was added into each well, which was then cultured in a 50° C. incubator for 30 minutes. The plate was centrifuged at 2500 rpm for 10 minutes to settle any sediment. A detection reagent solution was prepared by diluting the detection reagent (component D in IDO1 cell-based assay kit, catalog #72031 BPS Bioscience) 50-fold in acetic acid. 100 μl of the supernatant taken from the centrifuged plate was transferred to a new transparent 96-well plate and then 100 μl of the detection reagent solution was added thereto. After reacting at room temperature for 10 minutes, absorbance was measured at 480 nm wavelength. For analysis of the results, the absorbance (At) of the well containing HEK293 cells in which IDO protein was expressed without treatment of an inhibitor was 100%; and the absorbance (Ab) of the well containing HEK293 cells in which IDO protein was not expressed was 0. The % absorbance was calculated according to the following equation: % Absorbance=(A−Ab)/(At−Ab), A=absorbance of the well treated with the test compound.

| IC50 | Structure (SMILES) |
| --- | --- |
| 23.7 nM | C[C@H](C[C@H]1CC[C@@H](c2ccnc3ccc(F)cc32)CC1)Nc1nc(Cl)nc2ccccc12 [Example 38, 2-chloro-N-((R)-1-((cis)-4-(6-fluoroquinolin-4-yl)cyclohexyl)propan-2-yl)quinazolin-4-amine] |
| 4.4 nM | CCOc1ccc2nc(N[C@H](C)C[C@H]3CC[C@@H](c4ccnc5ccc(F)cc54)CC3)oc2c1 [Example 44, 6-ethoxy-N-((R)-1-((cis)-4-(6-fluoroquinolin-4-yl)cyclohexyl)propan-2-yl)benzo[d]oxazol-2-amine] |
| 5.7 nM | C[C@H](C[C@H]1CC[C@@H](c2ccnc3ccc(F)cc32)CC1)Nc1nc2cc(F)ccc2o1 [Example 36, 5-fluoro-N-((R)-1-((cis)-4-(6-fluoroquinolin-4-yl)cyclohexyl)propan-2-yl)benzo[d]oxazol-2-amine] |
| 43.6 nM | C[C@H](C[C@H]1CC[C@H](c2ccnc3ccc(F)cc32)CC1)Nc1nc(Cl)nc2cc(F)ccc12 [Example 54, 2-chloro-7-fluoro-N-((R)-1-((trans)-4-(6-fluoroquinolin-4-yl)cyclohexyl)propan-2-yl)quinazolin-4-amine] |
| 16.1 nM | Cc1ccc2c(N[C@H](C)C[C@H]3CC[C@@H](c4ccnc5ccc(F)cc54)CC3)nc(Cl)nc2c1 [Example 65, 2-chloro-N-((R)-1-((cis)-4-(6-fluoroquinolin-4-yl)cyclohexyl)propan-2-yl)-7-methylquinazolin-4-amine] |
| 72 nM | C[C@H](C[C@H]1CC[C@H](c2ccnc3ccc(F)cc32)CC1)Nc1nc(Cl)nc2ccc(Cl)cc12 [Example 49, 2,6-dichloro-N-((R)-1-((trans)-4-(6-fluoroquinolin-4-yl)cyclohexyl)propan-2-yl)quinazolin-4-amine] |

The next lines start with the molecule.

| Structure (SMILES) | IC50 |
| --- | --- |
| C[C@H](C[C@H]1CC[C@@H](c2ccnc3ccc(F)cc32)CC1)Nc1c(F)c(=O)oc2cc(Br)ccc12 [Example 11, 7-bromo-3-fluoro-4-(((R)-1-((cis)-4-(6-fluoroquinolin-4-yl)cyclohexyl)propan-2-yl)amino)-2H-chromen-2-one] | 18.3 nM |
| C[C@H](C[C@H]1CC[C@@H](c2ccnc3ccc(F)cc32)CC1)Nc1nc(Cl)nc2c(OC(F)(F)F)cccc12 [Example 71, 2-chloro-N-((R)-1-((cis)-4-(6-fluoroquinolin-4-yl)cyclohexyl)propan-2-yl)-8-(trifluoromethoxy)quinazolin-4-amine] | 276 nM |
| C[C@H](C[C@H]1CC[C@H](c2ccnc3ccc(F)cc32)CC1)Nc1nc(Cl)nc2c(F)cccc12 [Example 50, 2-chloro-8-fluoro-N-((R)-1-((trans)-4-(6-fluoroquinolin-4-yl)cyclohexyl)propan-2-yl)quinazolin-4-amine] | 62.3 nM |
| C[C@H](C[C@H]1CC[C@H](c2ccnc3ccc(F)cc32)CC1)Nc1nc(Cl)nc2c(OC(F)(F)F)cccc12 [Example 53, 2-chloro-N-((R)-1-((trans)-4-(6-fluoroquinolin-4-yl)cyclohexyl)propan-2-yl)-8-(trifluoromethoxy)quinazolin-4-amine] | 57.4 nM |
| C[C@H](C[C@H]1CC[C@@H](c2ccnc3ccc(F)cc32)CC1)Nc1nc(Cl)nc2c(F)cccc12 [Example 69, 2-chloro-8-fluoro-N-((R)-1-((cis)-4-(6-fluoroquinolin-4-yl)cyclohexyl)propan-2-yl)quinazolin-4-amine] | 18.8 nM |
